Results reported in patent US20250313575A1, “MACROCYCLES AS LRRK2 INHIBITORS, PHARMACEUTICAL COMPOSITIONS, AND USES THEREOF” (Merck Sharp & Dohme LLC, priority 2022, published 2025).

The molecules below were run against GST-tagged truncated human mutant G2019S LRRK2 (Homo sapiens (Human), UniProt Q5S007, G2019S) (assay: LRRK2 G2019S Km ATP LanthaScreen assay). Conditions: G2019S LRRK2, 134 μM ATP (Km ATP), LRRKtide substrate.
Format: biochemical
Procedure, shortened: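 TR-FRET assay with GST-tagged truncated human G2019S LRRK2 (1.25 nM), preincubated with compound 15 min, then reacted with fluorescein-LRRKtide and 134 μM ATP (Km) in Tris pH 8.5 buffer, 90 min, ambient temperature. Tb-anti-phospho-LRRKtide detection, 520/495 nm ratio; IC50 by 4-parameter logistic fit, top concentration 9.99 μM in DMSO, 10 points.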

GST-tagged truncated human mutant G2019S LRRK2, sequence (Q5S007 970-2527 G2019S): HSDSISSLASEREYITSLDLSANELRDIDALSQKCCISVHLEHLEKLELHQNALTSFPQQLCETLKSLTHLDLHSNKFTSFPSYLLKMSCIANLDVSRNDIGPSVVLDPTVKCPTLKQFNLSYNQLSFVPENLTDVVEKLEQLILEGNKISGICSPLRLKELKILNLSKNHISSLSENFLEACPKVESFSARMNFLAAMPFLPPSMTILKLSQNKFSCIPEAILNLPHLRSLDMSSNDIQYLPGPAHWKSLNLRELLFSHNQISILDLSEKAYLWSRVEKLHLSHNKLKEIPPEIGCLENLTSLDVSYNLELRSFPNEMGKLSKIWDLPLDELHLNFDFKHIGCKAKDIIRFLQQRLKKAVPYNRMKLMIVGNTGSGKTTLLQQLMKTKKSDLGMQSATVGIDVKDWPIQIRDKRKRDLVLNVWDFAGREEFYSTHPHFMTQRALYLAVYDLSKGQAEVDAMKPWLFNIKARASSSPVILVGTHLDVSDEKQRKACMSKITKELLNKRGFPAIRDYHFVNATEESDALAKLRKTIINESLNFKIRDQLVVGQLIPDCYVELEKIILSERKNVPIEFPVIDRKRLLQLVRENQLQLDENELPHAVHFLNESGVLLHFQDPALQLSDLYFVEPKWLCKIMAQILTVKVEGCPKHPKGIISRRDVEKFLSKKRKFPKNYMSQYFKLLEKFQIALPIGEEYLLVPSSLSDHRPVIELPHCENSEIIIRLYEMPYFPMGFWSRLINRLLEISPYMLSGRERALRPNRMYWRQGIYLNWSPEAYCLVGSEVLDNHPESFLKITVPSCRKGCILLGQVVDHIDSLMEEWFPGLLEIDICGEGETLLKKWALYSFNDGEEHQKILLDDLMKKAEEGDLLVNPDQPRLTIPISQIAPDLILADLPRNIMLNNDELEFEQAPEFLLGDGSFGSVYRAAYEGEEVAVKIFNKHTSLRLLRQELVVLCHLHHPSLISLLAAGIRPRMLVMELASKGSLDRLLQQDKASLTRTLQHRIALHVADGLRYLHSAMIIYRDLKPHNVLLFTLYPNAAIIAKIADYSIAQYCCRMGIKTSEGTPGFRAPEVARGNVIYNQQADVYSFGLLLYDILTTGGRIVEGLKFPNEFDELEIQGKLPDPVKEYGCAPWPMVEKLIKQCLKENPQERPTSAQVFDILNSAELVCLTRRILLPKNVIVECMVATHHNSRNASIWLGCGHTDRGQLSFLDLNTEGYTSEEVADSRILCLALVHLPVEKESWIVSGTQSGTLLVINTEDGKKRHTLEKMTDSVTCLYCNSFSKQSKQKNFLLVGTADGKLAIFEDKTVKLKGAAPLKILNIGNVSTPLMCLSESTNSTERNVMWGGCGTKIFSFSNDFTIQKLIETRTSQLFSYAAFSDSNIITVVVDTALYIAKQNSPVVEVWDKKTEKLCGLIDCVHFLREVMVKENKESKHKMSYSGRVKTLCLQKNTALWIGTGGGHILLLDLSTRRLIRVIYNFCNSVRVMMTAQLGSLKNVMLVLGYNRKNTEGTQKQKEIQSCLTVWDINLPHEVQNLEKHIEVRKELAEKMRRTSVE

Molecule	LRRK2 pIC50
Cc1cnc2c(c1)Nc1ncc(C(F)(F)F)c(n1)N[C@@H]1COC[C@H]1CO2 [Ex-15.3, (11aS,14aS)-3-methyl-9-(trifluoromethyl)-11a,12,14a,15-tetrahydro-5H,11H,14H6,10-(azeno)furo[3,4-k]pyrido[2,3-b][1]oxa[4,6,10]triazacyclotridecine]	9.15
FC(F)(F)c1cnc2nc1N[C@@H]1COC[C@H]1COc1cccc(Br)c1N2 [Ex-15.4, (3aS,16aS)-11-bromo-6-(trifluoromethyl)-3a,4,16,16a-tetrahydro-1H,3H,10H-5,9-(azeno)benzo[b]furo[3,4-k][1]oxa[4,6,10]triazacyclotridecine]	9.12
FC(F)(F)c1cnc2nc1N[C@@H]1COC[C@H]1COc1ccnc(Cl)c1N2 [Ex-15.5, (3aS,16aS)-11-chloro-6-(trifluoromethyl)-3a,4,16,16a-tetrahydro-1H,3H,10H-5,9-(azeno)furo[3,4-k]pyrido[4,3-b][1]oxa[4,6,10]triazacyclotridecine]	9.90
FC(F)(F)c1cnc2nc1N[C@@H]1COC[C@H]1COc1ncccc1N2 [Ex-15.6, (11aS,14aS)-9-(trifluoromethyl)-11a,12,14a,15-tetrahydro-5H,11H,14H6,10-(azeno)furo[3,4-k]pyrido[2,3-b][1]oxa[4,6,10]triazacyclotridecine]	9.08
Cc1ccc2c(n1)OC[C@@H]1COC[C@H]1Nc1nc(ncc1C(F)(F)F)N2 [Ex-15.7, (11aS,14aS)-2-methyl-9-(trifluoromethyl)-11a,12,14a,15-tetrahydro-5H,11H,14H6,10-(azeno)furo[3,4-k]pyrido[2,3-b][1]oxa[4,6,10]triazacyclotridecine]	10.01
FC(F)(F)c1cnc2nc1N[C@@H]1COC[C@H]1COc1cc(Cl)ncc1N2 [Ex-15.8, (3aS,16aS)-13-chloro-6-(trifluoromethyl)-3a,4,16,16a-tetrahydro-1H,3H,10H-5,9-(azeno)furo[3,4-k]pyrido[4,3-b][1]oxa[4,6,10]triazacyclotridecine]	9.04
C[C@@H]1CCOc2cn(C)nc2Nc2ncc(Cl)c(n2)N1 [Ex-18.1, (R)-10-chloro-2,7-dimethyl-2,5,6,7,8,14-hexahydro-9,13-(azeno)pyrazolo[4,3-b][1]oxa[4,6,10]triazacyclotridecine]	7.94
Cc1nn(C)c2c1OC[C@@H]1CN(C[C@H]1C)c1nc(ncc1C(F)(F)F)N2 [Ex-19.1]	>10.09
(10aR,12aR)-8-chloro-3-methyl-1- (trifluoromethyl)-3,4,10,10a,11,12,12a,13- octahydro-5,9- (azeno)cyclobuta[k]pyrazolo[4,3- b][1]oxa[4,6,10]triazacyclotridecine [Ex-2.76]	9.47
(R)- or (S)-1-cyclopropyl-3,7-dimethyl-10- (trifluoromethyl)-1,5,6,7,8,14-hexahydro- 9,13-(azeno)pyrazolo[4,3- b][1]oxa[4,6,10]triazacyclotridecine [Ex-2.20]	6.71
(R)- or (S)-1-cyclopropyl-3,7-dimethyl-10- (trifluoromethyl)-1,5,6,7,8,14-hexahydro- 9,13-(azeno)pyrazolo[4,3- b][1]oxa[4,6,10]triazacyclotridecine [Ex-2.21]	9.00
